In article PMC8751734 (Cell Chemical Biology, 2022):

Columns and labels:
PL^pro = conditions: ref Shin et al., 2020 (GRL-0617); Klemm et al., 2020 (rac5c); cited from earlier work
SARS-CoV-2 [1] = assay: Activity of ACF components against SARS-CoV-2 in vitro; format: cell-based
[2] = Pharmacokinetics study of ACF in CD-1 mice; format: in vivo
SARS-CoV-2 [3] = format: cell-based
SARS-CoV-2 [4] = format: cell-based; remark: listed apart in the source
SARS-CoV-2 [5] = conditions: mouse, in vivo
SARS-CoV-2 [6] = format: cell-based; remark: listed apart in the source

**Q.** For `COc1cc(CNC(=O)C2CCN(C(C)c3cccc4ccccc34)CC2)ccn1` (racemic) [rac5c], which reported activity (PL^pro) is on record?
**A.** The reported activity was “active at the micromolar range”.

**Q.** For `Cc1ccc(N)cc1C(=O)N[C@H](C)c1cccc2ccccc12` [GRL-0617], which reported activity (PL^pro) is on record?
**A.** Its reported activity is “active at the micromolar range”.

**Q.** With `Nc1ccc2cc3ccc(N)cc3nc2c1` [PF, 3,6-diaminoacridine] as the molecule, how does the “activity against SARS-CoV-2 in vitro” value (SARS-CoV-2 [1]) read?
**A.** The value was “active”.

**Q.** And the “levels / exposure in lungs” value ([2]; IV 15 mg/kg and PO 100 mg/kg of commercial ACF)?
**A.** Its value is “very high”.

**Q.** And the oral bioavailability ([2]; components of commercial ACF)?
**A.** Its oral bioavailability is “much higher bioavailability”.

**Q.** For `CCC(CC)COC(=O)[C@H](C)N[P@](=O)(OC[C@H]1O[C@@](C#N)(c2ccc3c(N)ncnn23)[C@H](O)[C@@H]1O)Oc1ccccc1` [remdesivir], which “elimination of SARS-CoV-2 (confocal microscopy)” value (SARS-CoV-2 [3]) is on record?
**A.** Its value is “nearly complete elimination”.

**Q.** What about the “virus yields in HAE cultures compared with PBS/untreated control” value (SARS-CoV-2 [4]) of the same molecule?
**A.** The value was “significantly inhibited virus yields”.

**Q.** And the “adverse effects in mice” value (SARS-CoV-2 [5])?
**A.** The value was “No adverse effects were observed”.

**Q.** What about the “decrease of viral loads in the brain” value (SARS-CoV-2 [5]) of the same molecule?
**A.** Its value is 2–3 orders of magnitude.

**Q.** And the “inhibition of SARS-CoV-2 replication (confocal microscopy)” value (SARS-CoV-2 [6])?
**A.** Its value is “inferior compared with 500 nM ACF”.
